The results in this text go back to patent US6020330A, “Hypolipidemic 1,4-benzothiazepine-1,1-dioxides” (Hoechst Aktiengesellschaft, priority 1997, dated 2000).

The assay deals with T1, ileal transporter of the rabbit (RIBAT) (Oryctolagus cuniculus, UniProt Q28727).
T1 construct: contained the total protein-coding region of the RIBAT; expressed in transfected cells; host or cells: CHO cells, stably transfected with pRIBAT8 (pcDNA1neo vector), G418-selected clonal line
T1 sequence (Q28727 1-347): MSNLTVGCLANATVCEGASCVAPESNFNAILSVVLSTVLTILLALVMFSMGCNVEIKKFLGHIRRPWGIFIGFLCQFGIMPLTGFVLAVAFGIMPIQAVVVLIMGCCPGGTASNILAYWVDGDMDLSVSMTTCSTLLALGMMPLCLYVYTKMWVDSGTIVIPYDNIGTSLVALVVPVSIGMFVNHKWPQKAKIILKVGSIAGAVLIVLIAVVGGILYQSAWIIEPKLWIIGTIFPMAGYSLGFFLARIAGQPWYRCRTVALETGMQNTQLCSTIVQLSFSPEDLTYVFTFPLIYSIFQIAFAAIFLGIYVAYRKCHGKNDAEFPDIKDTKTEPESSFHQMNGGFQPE
The experiment in a line: Inhibition of [24-14C]-taurocholic acid uptake in CHO/pRIBAT8 cells. The class given is cell-based. As to conditions: 21° C., 30 minutes. An excerpt:
These were derivatives of the generally known "Chinese hamster ovary" (CHO) cell line, which on account of incorporated expression plasmids additionally produced sodium-dependent bile acid transporters. The first cell line (CHO/pRIBAT8) was in this case the ileal transporter of the rabbit (RIBAT), the second (CHO/pHIBAT8) the ileal transporter of the human (HIBAT) and the third (CHO/pHLBAT5) the hepatic transporter of the human. All plasmids were based on the standard plasmid pCDNA1neo, which as important elements has a cytomegaloviral promoter for the permanent expression of heterologous genes and a gene for the production of cell resistance against the substance G418.
The starting material for the production of the plasmid for the RIBAT-producing cell line (pRIBAT8) was total RNA of the terminal ileum of the rabbit. […]
For the preparation of the genetically modified cell lines, CHO cells were transfected with DNA from pRIBAT8, pHIBAT8 or pHLBAT5 and cells which developed resistance against the selection substance G418 were selectively additionally cultured by addition of the substance to the cell medium. […] They could thereby be easily differentiated from cells without intact bile acid transporters with the aid of a fluorescence microscope. […]

On to `CCCCC1(CC)CS(=O)(=O)c2cc(O[C@@H]3O[C@H](C(=O)O)[C@@H](O)[C@H](O)[C@H]3O)ccc2C(c2ccccc2)N1` (stereo partly shown) [Example 3], for which 70 nM corresponded to half-maximal inhibition (IC50).
